Source: patent US8802597B2, “Herbicidal pyrimidines” (E I du Pont de Nemours and Company, priority 2003, dated 2014)
Read-outs that look alike come from different tables or passages of the source.

Columns and labels:
Type in all cases: in vivo
[1] = test system: velvetleaf (Abutilon theophrasti); test: Test B pre/postemergence; conditions: Abutilon theophrasti; for pest or weed control at 125 g/ha: 125 g ai/ha; for pest or weed control at 500 g/ha: 500 g ai/ha
In short: (§1)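 Test chemicals in a non-phytotoxic solvent mixture with surfactant were applied preemergence to planted seeds and postemergence to plants 2 to 18 cm tall (1- to 4-leaf stage). After 13 to 15 days in a greenhouse, injury was visually rated against untreated controls on a 0 to 100 scale.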

[2] = test system: morningglory (Ipomoea coccinea); test: Test B pre/postemergence; conditions: Ipomoea; for pest or weed control at 125 g/ha: 125 g ai/ha; for pest or weed control at 500 g/ha: 500 g ai/ha
In short: as §1

corn (Zea mays) = test: Test B pre/postemergence; conditions: Zea mays
In short: as §1

[3] = test system: barnyardgrass (Echinochloa crus-galli); test: Test B pre/postemergence; conditions: Echinochloa crus-galli; for pest or weed control at 125 g/ha: 125 g ai/ha; for pest or weed control at 500 g/ha: 500 g ai/ha
In short: as §1

[4] = test system: Surinam grass (Brachiaria decumbens); test: Test B pre/postemergence; conditions: Urochloa decumbens; for pest or weed control at 125 g/ha: 125 g ai/ha; for pest or weed control at 500 g/ha: 500 g ai/ha
In short: as §1

[5] = test system: cocklebur (Xanthium strumarium); test: Test B pre/postemergence; conditions: Xanthium strumarium; for pest or weed control at 125 g/ha: 125 g ai/ha; for pest or weed control at 500 g/ha: 500 g ai/ha
In short: as §1

[6] = test system: giant foxtail (Setaria faberii); test: Test B pre/postemergence; conditions: Setaria faberi; for pest or weed control at 125 g/ha: 125 g ai/ha; for pest or weed control at 500 g/ha: 500 g ai/ha
In short: as §1

[7] = test system: lambsquarters (Chenopodium album); test: Test B pre/postemergence; conditions: Chenopodium album; for pest or weed control at 125 g/ha: 125 g ai/ha; for pest or weed control at 500 g/ha: 500 g ai/ha
In short: as §1

[8] = test system: crabgrass (Digitaria sanguinalis); test: Test B pre/postemergence; conditions: Digitaria sanguinalis; for pest or weed control at 125 g/ha: 125 g ai/ha; for pest or weed control at 500 g/ha: 500 g ai/ha
In short: as §1

[9] = test system: pigweed (Amaranthus retroflexus); test: Test B pre/postemergence; conditions: Amaranthus retroflexus; for pest or weed control at 125 g/ha: 125 g ai/ha; for pest or weed control at 500 g/ha: 500 g ai/ha
In short: as §1

[10] = test system: wheat (Triticum aestivum); test: Test B pre/postemergence; conditions: Triticum aestivum; for plant injury at 125 g/ha: 125 g ai/ha; for plant injury at 500 g/ha: 500 g ai/ha
In short: as §1

[11] = test system: barnyardgrass (Echinochloa crus-galli); test: Test B flooded paddy test; conditions: Echinochloa crus-galli, Flood, 1000 g ai/ha; scale 0 (no effect) to 100 (complete control); read-out: Plant response rating, Barnyardgrass
In short: (§2)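 Visual injury scoring (0 = no effect, 100 = complete control) versus controls made 13 to 15 days after treatment in the greenhouse. Test species were grown in flooded paddy to the 2-leaf stage: rice, barnyardgrass, umbrella sedge, duck salad.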

[12] = test system: duck salad (Heteranthera limosa); test: Test B flooded paddy test; conditions: Heteranthera limosa, Flood, 1000 g ai/ha; scale 0 to 100; read-out: Plant response rating, Ducksalad
In short: as §2

rice (Oryza sativa) = test: Test B flooded paddy test; conditions: Oryza sativa, Flood, 1000 g ai/ha; scale 0 to 100; read-out: Plant response rating, Rice
In short: as §2

[13] = test system: umbrella sedge (Cyperus difformis); test: Test B flooded paddy test; conditions: Cyperus difformis, Flood, 1000 g ai/ha; scale 0 to 100; read-out: Plant response rating, Sedge, Umbrella
In short: as §2

[14] = test system: blackgrass (Alopecurus myosuroides); test: Test B postemergence; conditions: Alopecurus myosuroides, post-emergence
In short: as §1

wild oat (Avena fatua) = test: Test B postemergence; conditions: Avena fatua, post-emergence
In short: as §1

[15] = pre-emergence, Preemergence, scale 0 to 100 (0 no effect, 100 complete control), read-out: Plant response rating, Wheat

Question: `CCOC(=O)c1nc(C(C)(C)C)nc(N)c1Br` [Compound 36] was tested. Which pest or weed control at 125 g/ha ([1]; post-emergence, Postemergence, scale 0 to 100 (0 no effect, 100 complete control), read-out: Velvetleaf plant response rating) did it give?
Answer: 20%

Question: And the pest or weed control at 500 g/ha ([1]; post-emergence, Postemergence, scale 0 to 100, read-out: Plant response rating, Velvetleaf)?
Answer: 40%

Question: And the pest or weed control at 125 g/ha ([1]; pre-emergence, Preemergence, scale 0 to 100 (0 no effect, 100 complete control), read-out: Plant response rating, Velvetleaf)?
Answer: 10%

Question: What about the pest or weed control at 500 g/ha ([1]; pre-emergence, Preemergence, scale 0 to 100 (0 no effect, 100 complete control), read-out: Velvetleaf plant response rating) of the same molecule?
Answer: 40%

Question: And the pest or weed control at 125 g/ha ([2]; post-emergence, Postemergence, scale 0 to 100 (0 no effect, 100 complete control), read-out: Morningglory plant response rating)?
Answer: 10%

Question: What about the pest or weed control at 500 g/ha ([2]; post-emergence, Postemergence, scale 0 to 100, read-out: Plant response rating, Morningglory) of the same molecule?
Answer: 70%

Question: And the pest or weed control at 125 g/ha ([2]; pre-emergence, Preemergence, scale 0 to 100 (0 no effect, 100 complete control), read-out: Plant response rating, Morningglory)?
Answer: 0%

Question: And the pest or weed control at 500 g/ha ([2]; pre-emergence, Preemergence, scale 0 to 100 (0 no effect, 100 complete control), read-out: Morningglory plant response rating)?
Answer: 0%

Question: What about the plant injury at 125 g/ha (corn (Zea mays); post-emergence, Postemergence, 125 g ai/ha, scale 0 to 100 (0 no effect, 100 complete control), read-out: Corn plant response rating) of the same molecule?
Answer: 0%

Question: And the Corn plant response rating (crop injury, 0 = no effect, 100 = complete kill) at 500 g/ha (corn (Zea mays); post-emergence, Postemergence, 500 g ai/ha, scale 0 to 100)?
Answer: 0%

Question: And the Corn plant response rating (crop injury, 0 = no effect, 100 = complete kill) at 125 g/ha (corn (Zea mays); pre-emergence, Preemergence, 125 g ai/ha, scale 0 to 100 (0 no effect, 100 complete control))?
Answer: 0%

Question: And the plant injury at 500 g/ha (corn (Zea mays); pre-emergence, Preemergence, 500 g ai/ha, scale 0 to 100 (0 no effect, 100 complete control), read-out: Corn plant response rating)?
Answer: 0%

Question: What about the pest or weed control at 125 g/ha ([3]; post-emergence, Postemergence, scale 0 to 100 (0 no effect, 100 complete control), read-out: Barnyardgrass plant response rating) of the same molecule?
Answer: 0%

Question: And the pest or weed control at 500 g/ha ([3]; post-emergence, Postemergence, scale 0 to 100, read-out: Plant response rating, Barnyardgrass)?
Answer: 0%

Question: And the pest or weed control at 125 g/ha ([3]; pre-emergence, Preemergence, scale 0 to 100 (0 no effect, 100 complete control), read-out: Plant response rating, Barnyardgrass)?
Answer: 0%

Question: What about the pest or weed control at 500 g/ha ([3]; pre-emergence, Preemergence, scale 0 to 100 (0 no effect, 100 complete control), read-out: Barnyardgrass plant response rating) of the same molecule?
Answer: 0%

Question: And the pest or weed control at 125 g/ha ([4]; post-emergence, Postemergence, scale 0 to 100 (0 no effect, 100 complete control), read-out: Surinam Grass plant response rating)?
Answer: 0%

Question: What about the pest or weed control at 500 g/ha ([4]; post-emergence, Postemergence, scale 0 to 100, read-out: Plant response rating, Surinam Grass) of the same molecule?
Answer: 0%

Question: And the pest or weed control at 125 g/ha ([4]; pre-emergence, Preemergence, scale 0 to 100 (0 no effect, 100 complete control), read-out: Plant response rating, Surinam Grass)?
Answer: 0%

Question: What about the pest or weed control at 500 g/ha ([4]; pre-emergence, Preemergence, scale 0 to 100 (0 no effect, 100 complete control), read-out: Surinam Grass plant response rating) of the same molecule?
Answer: 0%

Question: What about the pest or weed control at 125 g/ha ([5]; post-emergence, Postemergence, scale 0 to 100 (0 no effect, 100 complete control), read-out: Cocklebur plant response rating) of the same molecule?
Answer: 20%

Question: And the pest or weed control at 500 g/ha ([5]; post-emergence, Postemergence, scale 0 to 100, read-out: Plant response rating, Cocklebur)?
Answer: 70%

Question: What about the pest or weed control at 125 g/ha ([5]; pre-emergence, Preemergence, scale 0 to 100 (0 no effect, 100 complete control), read-out: Plant response rating, Cocklebur) of the same molecule?
Answer: 10%

Question: What about the pest or weed control at 500 g/ha ([5]; pre-emergence, Preemergence, scale 0 to 100 (0 no effect, 100 complete control), read-out: Cocklebur plant response rating) of the same molecule?
Answer: 60%

Question: And the pest or weed control at 125 g/ha ([6]; post-emergence, Postemergence, scale 0 to 100 (0 no effect, 100 complete control), read-out: Foxtail, Giant plant response rating)?
Answer: 0%

Question: And the pest or weed control at 500 g/ha ([6]; post-emergence, Postemergence, scale 0 to 100, read-out: Plant response rating, Foxtail, Giant)?
Answer: 10%

Question: And the pest or weed control at 125 g/ha ([6]; pre-emergence, Preemergence, scale 0 to 100 (0 no effect, 100 complete control), read-out: Plant response rating, Foxtail, Giant)?
Answer: 0%

Question: And the pest or weed control at 500 g/ha ([6]; pre-emergence, Preemergence, scale 0 to 100 (0 no effect, 100 complete control), read-out: Foxtail, Giant plant response rating)?
Answer: 0%

Question: What about the pest or weed control at 125 g/ha ([7]; post-emergence, Postemergence, scale 0 to 100 (0 no effect, 100 complete control), read-out: Lambsquarters plant response rating) of the same molecule?
Answer: 40%

Question: What about the pest or weed control at 500 g/ha ([7]; post-emergence, Postemergence, scale 0 to 100, read-out: Plant response rating, Lambsquarters) of the same molecule?
Answer: 50%

Question: And the pest or weed control at 125 g/ha ([7]; pre-emergence, Preemergence, scale 0 to 100 (0 no effect, 100 complete control), read-out: Plant response rating, Lambsquarters)?
Answer: 0%

Question: And the pest or weed control at 500 g/ha ([7]; pre-emergence, Preemergence, scale 0 to 100 (0 no effect, 100 complete control), read-out: Lambsquarters plant response rating)?
Answer: 40%

Question: And the pest or weed control at 125 g/ha ([8]; post-emergence, Postemergence, scale 0 to 100 (0 no effect, 100 complete control), read-out: Crabgrass plant response rating)?
Answer: 0%

Question: And the pest or weed control at 500 g/ha ([8]; post-emergence, Postemergence, scale 0 to 100, read-out: Plant response rating, Crabgrass)?
Answer: 0%

Question: And the pest or weed control at 125 g/ha ([8]; pre-emergence, Preemergence, scale 0 to 100 (0 no effect, 100 complete control), read-out: Plant response rating, Crabgrass)?
Answer: 0%

Question: And the pest or weed control at 500 g/ha ([8]; pre-emergence, Preemergence, scale 0 to 100 (0 no effect, 100 complete control), read-out: Crabgrass plant response rating)?
Answer: 0%

Question: What about the pest or weed control at 125 g/ha ([9]; post-emergence, Postemergence, scale 0 to 100 (0 no effect, 100 complete control), read-out: Pigweed plant response rating) of the same molecule?
Answer: 20%

Question: And the pest or weed control at 500 g/ha ([9]; post-emergence, Postemergence, scale 0 to 100, read-out: Plant response rating, Pigweed)?
Answer: 30%

Question: What about the pest or weed control at 125 g/ha ([9]; pre-emergence, Preemergence, scale 0 to 100 (0 no effect, 100 complete control), read-out: Plant response rating, Pigweed) of the same molecule?
Answer: 0%

Question: What about the pest or weed control at 500 g/ha ([9]; pre-emergence, Preemergence, scale 0 to 100 (0 no effect, 100 complete control), read-out: Pigweed plant response rating) of the same molecule?
Answer: 20%

Question: And the plant injury at 125 g/ha ([10]; post-emergence, Postemergence, scale 0 to 100 (0 no effect, 100 complete control), read-out: Wheat plant response rating)?
Answer: 0%

Question: What about the plant injury at 500 g/ha ([10]; post-emergence, Postemergence, scale 0 to 100, read-out: Plant response rating, Wheat) of the same molecule?
Answer: 40%

Question: And the plant injury at 125 g/ha [10, 15]?
Answer: 0%

Question: And the plant injury at 500 g/ha [10, 15]?
Answer: 0%

Question: And the pest or weed control at 1000 g/ha [11]?
Answer: 0%

Question: What about the pest or weed control at 1000 g/ha [12] of the same molecule?
Answer: 0%

Question: And the plant injury at 1000 g/ha (rice (Oryza sativa))?
Answer: 0%

Question: And the pest or weed control at 1000 g/ha [13]?
Answer: 0%

Question: What about the pest or weed control at 125 g/ha ([14]; 125 g ai/ha, scale 0 to 100 (0 no effect, 100 complete control), read-out: Blackgrass plant response rating) of the same molecule?
Answer: 0%

Question: What about the pest or weed control at 500 g/ha ([14]; 500 g ai/ha, scale 0 to 100, read-out: Plant response rating, Blackgrass) of the same molecule?
Answer: 40%

Question: What about the pest or weed control at 125 g/ha (wild oat (Avena fatua); 125 g ai/ha, scale 0 to 100 (0 no effect, 100 complete control), read-out: Oat, Wild plant response rating) of the same molecule?
Answer: 0%

Question: What about the pest or weed control at 500 g/ha (wild oat (Avena fatua); 500 g ai/ha, scale 0 to 100, read-out: Plant response rating, Oat, Wild) of the same molecule?
Answer: 40%
